Experimental findings from PubChem BioAssay AID2388 (Broad Institute, 2010) are described below.

Active and inactive are the calls of the source.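 How the source made its calls: active means fitted EC50 no more than ten times the top tested dose; inconclusive means flat fit with 30% to 70% inhibition, or a poor fit; inactive means EC50 beyond ten times the top tested dose.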

This experiment concerns S. cerevisiae CDRE-lacZ reporter, CaCl2, luminescence. The experiment is described as follows: calcineurin pathway inhibitors in yeast reporter, dose response, S. cerevisiae, CDRE-lacZ, luminescence, secondary (AID 2388).

Take `CC1CCC(C(C)C)C(OC(=O)Cn2c(-c3ccc(Br)cc3)[n+](C)c3ccccc32)C1` (configuration not stated): the EC50 was > 18 µM (inactive). As to `NC(=NCCCCCCN=C(N)/N=C(\N)Nc1ccc(Cl)cc1)/N=C(\N)Nc1ccc(Cl)cc1`, the EC50 is > 18 µM (inactive).
